For data set [1], the target named is T1, TC-PTP (Homo sapiens, UniProt P17706).
T1 sequence (P17706 1-415): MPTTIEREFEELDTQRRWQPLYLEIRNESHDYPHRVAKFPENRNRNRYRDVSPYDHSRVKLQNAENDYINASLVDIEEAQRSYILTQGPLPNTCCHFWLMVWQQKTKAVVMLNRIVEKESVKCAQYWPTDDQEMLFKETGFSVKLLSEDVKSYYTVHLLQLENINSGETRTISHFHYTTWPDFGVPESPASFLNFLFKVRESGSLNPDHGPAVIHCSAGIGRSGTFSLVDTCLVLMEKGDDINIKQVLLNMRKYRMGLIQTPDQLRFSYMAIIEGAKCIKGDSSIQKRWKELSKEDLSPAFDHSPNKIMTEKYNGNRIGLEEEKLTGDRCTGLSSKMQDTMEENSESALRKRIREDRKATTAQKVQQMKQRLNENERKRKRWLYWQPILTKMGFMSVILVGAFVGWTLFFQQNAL
Briefly: Degradation assay in HEK293 cells (immunoblotting). Also noted: endogenous in cells; host or cells: HEK293. Format: cell-based. The following applies: 0.2 μM degrader, 16 hours, read-out: % Protein Degradation TC-PTP. Background: Immunoblotting shows a protein as a band on a membrane.

Data set [2] deals with T2, PTP1B (Homo sapiens, UniProt P18031).
T2 sequence (P18031 1-435): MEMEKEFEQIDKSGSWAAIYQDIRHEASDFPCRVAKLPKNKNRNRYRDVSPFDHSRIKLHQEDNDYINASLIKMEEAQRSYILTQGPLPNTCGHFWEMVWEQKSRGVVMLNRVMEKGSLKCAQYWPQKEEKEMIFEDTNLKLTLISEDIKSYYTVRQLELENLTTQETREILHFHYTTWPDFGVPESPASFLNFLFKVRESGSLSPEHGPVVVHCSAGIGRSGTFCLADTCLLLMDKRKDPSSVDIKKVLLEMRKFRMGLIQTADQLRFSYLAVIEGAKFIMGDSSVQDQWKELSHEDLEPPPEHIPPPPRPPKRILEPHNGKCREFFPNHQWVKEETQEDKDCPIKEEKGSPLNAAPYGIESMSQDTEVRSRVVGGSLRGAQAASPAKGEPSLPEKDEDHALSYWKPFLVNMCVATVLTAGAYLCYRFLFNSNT
Briefly: Degradation assay in HEK293 cells (immunoblotting). Format: cell-based. Also noted: endogenous in cells; host or cells: HEK293. To be noted: 0.2 μM degrader, 16 hours.

Data set [3] deals with pSTAT1. Briefly: STAT1 phosphorylation in IFN-γ stimulated HEK293 cells (western blot). It is filed as cell-based. To be noted: Homo sapiens, HEK293, 16 h, read-out: EC50 of pSTAT1 activation. As for the experimental part:
Wild-type HEK293 cells were treated with compound 47 or ABBV-CLS-484 for 16 hours, and stimulated with 20 ng/ml IFN-γ to induce JAK-STAT signaling pathway activation.
Abbvie and Calico developed a potent PTP1B/TC-PTP inhibitor ABBV-CLS-484 (disclosed in International PCT application WO2019246513), and it is currently being evaluated as a treatment for locally advanced or metastatic tumors (NCT04777994).

Data set [4] in a line: Pharmacokinetic study in mice (i.p., different formulas). To be noted: PBS buffer compared to saline. Format: in vivo, mouse. Here is the method:
Plasma concentrations of compound 47 were measured by LCMS after i.p. injection with different formulas at the indicated time.
For the PK study, C57BL6 female mice (25-30 g body weight) were injected intraperitoneally with 25 or 50 mg/kg compound 47 dissolved in 0.4 ml saline. Blood samples were collected through the tail vein at indicated time points after injection. Isoflurane was used as an anesthetic. All blood samples were centrifuged at 1,500 g for 5 minutes, and plasma was separated and stored at −80° C. until analysis by a validated method based on reversed-phase liquid chromatography coupled to mass-spectrometric detection (LC/MS) using a reported procedure (Journal of Clinical Investigation, 2018, 128, 816-825), which is hereby specifically incorporated by reference for its teachings regarding same (FIG. 5A).
Saline was replaced by PBS buffer in the treatment of compound 47 in mice to improve PK properties (FIG. 10). Both Cmax and area under the curve (AUC) were increased compared to the above method with saline.

Data set [5] can be described thus: Blood glucose levels study in mice. It is filed as in vivo, mouse. Here is the method:
Blood glucose levels were measured 24 or 48 hours after injection. No starvation applied. NFD=normal fat diet fed mice. […] Mice were treated with 25 or 50 mg/kg of compound 47 daily through i.p. injection. Blood glucose levels were measured several times before injection during the experiment.
PTP1B and TC-PTP are known to function in concert in regulating both insulin and leptin-mediated cellular processes. The inhibition of PTP1B and TC-PTP was reported to improve insulin sensitivity and glucose homeostasis in diet-induced obese mice. The effect of compound 47 on the glucose levels in mice was evaluated.

*1 amine or outer side, *2 acyl side, *3 side chain or, on linkers, in order; H or OH if unused. Where a SMILES comes first, the peptide text is derived from it. [ ]: non-standard residue; d: D form. The star is where a group is joined. NHCH2(1,3-C6H4)CH2CO = O=C(Cc1cccc(CN[*:1])c1)[*:2]; F2Pmp = N[C@@H](Cc1ccc(C(F)(F)P(=O)(O)O)cc1)C(=O)O; Phenylacetyl(4-OH,3-OMe) = COc1cc(CC(=O)*)ccc1O; Benzoyl(3-Br,4-Me) = Cc1ccc(C(=O)*)cc1Br; X1 = Cc1ncsc1-c1ccc([C@H](C)N*)cc1; Hyp = O=C(O)[C@@H]1C[C@@H](O)CN1; Tle = CC(C)(C)[C@H](N)C(=O)O

Usually EC50 stands for the concentration needed to bring the measured effect to its halfway point.

For `COc1cc(CC(=O)N[C@@H](Cc2ccccc2)C(=O)N[C@@H](Cc2ccc(C(F)(F)P(=O)(O)O)cc2)C(=O)N[C@@H](CCCCNC(=O)c2ccc(C)c(Br)c2)C(=O)NCc2cccc(CC(=O)N[C@H](C(=O)N3C[C@H](O)C[C@H]3C(=O)N[C@@H](C)c3ccc(-c4scnc4C)cc3)C(C)(C)C)c2)ccc1O` [Compound 47, ((4-((S)-3-(((S)-6-(3-bromo-4-methylbenzamido)-1-((3-(2-(((S)-1-((2S,4R)-4-hydroxy-2-(((S)-1-(4-(4-methylthiazol-5-yl)phenyl)ethyl)carbamoyl)pyrrolidin-1-yl)-3,3-dimethyl-1-oxobutan-2-yl)amino)-2-oxoethyl)benzyl)amino)-1-oxohexan-2-yl)amino)-2-((S)-2-(2-(4-hydroxy-3-methoxyphenyl)acetamido)-3-phenylpropanamido)-3-oxopropyl)phenyl)difluoromethyl)phosphonic Acid] ({Phenylacetyl(4-OH,3-OMe)}-F[F2Pmp]K(Benzoyl(3-Br,4-Me))[NHCH2(1,3-C6H4)CH2CO][Tle][Hyp]-X1), in data set [1], the percent TC-PTP degradation at 0.2 µM was 92%. In data set [2], the “% Protein Degradation PTP1B” value is reported as 95%. Besides, in data set [3], the EC50 amounted to 9.1 nM. Also, in data set [4], the Cmax entry is listed as “increased”. Moreover, the “area under the curve (AUC)” value in data set [4] is given as “increased”. Also, the blood glucose level entry in data set [5] (MC38 tumor mouse model, 25 mg/kg daily i.p.) is “did not lead to significant reduction in the level of blood glucose”; in data set [5] (MC38 tumor mouse model, 50 mg/kg daily i.p.) it was “slightly reduced blood glucose level”; in data set [5] (high-fat diet (HFD) mice, 15 mg/kg) it was “sufficient to reduce blood glucose level in high-fat diet (HFD) mice to that of normal fat diet fed (NFD) mice”; in data set [5] (high-fat diet (HFD) mice, 50 mg/kg), “further reduced glucose levels”.
